US10214510B2, “N-cycloalkyl-N-(biheterocyclylethylene)-(thio)carboxamide derivatives” (Bayer CropScience Aktiengesellschaft, priority 2015, dated 2019)

Tests used:
Alternaria brassicae = assay: In vivo preventive test on Alternaria brassicae (leaf spot on radish); conditions: for protection: dose of 100 and 500 ppm of active ingredient
Description: Example A: In Vivo Preventive Test on Alternaria Brassicae (Leaf Spot on Radish) Solvent: 5% by volume of Dimethyl sulfoxide • 10% by volume of Acetone Emulsifier: 1 μL of Tween® 80 per mg of active ingredient The active ingredients are made soluble and homogenized in a mixture of Dimethyl sulfoxide/Acetone//Tween® 80 and then diluted in water to the desired concentration. The young plants of radish are treated by spraying the active ingredient prepared as described above. Control plants are treated only with an aqueous solution of Acetone/Dimethyl sulfoxide/Tween® 80. After 24 hours, the plants are contaminated by spraying the leaves with an aqueous suspension of Alternaria brassicae spores. The contaminated radish plants are incubated for 6 days at 20° C. and at 100% relative humidity. The test is evaluated 6 days after the inoculation. 0% means an efficacy which corresponds to that of the control plants while an efficacy of 100% means that no disease is observed.

Puccinia recondita = assay: In vivo preventive test on Puccinia recondita (brown rust on wheat)
Description: (§1) Example B: In Vivo Preventive Test on Puccinia Recondita (Brown Rust on Wheat) Solvent: 5% by volume of Dimethyl sulfoxide • 10% by volume of Acetone Emulsifier: 1 μL of Tween® 80 per mg of active ingredient The active ingredients are made soluble and homogenized in a mixture of Dimethyl sulfoxide/Acetone//Tween® 80 and then diluted in water to the desired concentration. The young plants of wheat are treated by spraying the active ingredient prepared as described above. Control plants are treated only with an aqueous solution of Acetone/Dimethyl sulfoxide/Tween® 80. After 24 hours, the plants are contaminated by spraying the leaves with an aqueous suspension of Puccinia recondita spores. The contaminated wheat plants are incubated for 24 hours at 20° C. and at 100% relative humidity and then for 10 days at 20° C. and at 70-80% relative humidity. The test is evaluated 11 days after the inoculation. 0% means an efficacy which corresponds to that of the control plants while an efficacy of 100% means that no disease is observed.

Uromyces appendiculatus = assay: In vivo preventive test on Uromyces appendiculatus (bean rust); conditions: for Efficacy: Table F2, dose 500 ppm; for protection: dose of 500 ppm of active ingredient
Description: as §1, with “F:” for “B:”, “Uromyces Appendiculatus (Bean Rust)” for “Puccinia Recondita (Brown Rust on Wheat)”, “bean” for “wheat”, “Uromyces appendiculatus” for “Puccinia recondita”

[1] = log P by HPLC on reversed-phase column (C 18), EEC Directive 79/831 Annex V.A8; type: physicochemical; conditions: for logP: HPLC, C 18, 40° C., 0.1% aqueous formic acid and acetonitrile
Description: In table 1, the log P values were determined in accordance with EEC Directive 79/831 Annex V.A8 by HPLC (High Performance Liquid Chromatography) on a reversed-phase column (C 18), using the method described below: Temperature: 40° C.; Mobile phases: 0.1% aqueous formic acid and acetonitrile; linear gradient from 10% acetonitrile to 90% acetonitrile. Calibration was carried out using unbranched alkan-2-ones (comprising 3 to 16 carbon atoms) with known log P values (determination of the log P values by the retention times using linear interpolation between two successive alkanones). lambda-max-values were determined using UV-spectra from 200 nm to 400 nm and the peak values of the chromatographic signals.

[2] = dose of 500 ppm of active ingredient
[3] = dose of 100 and 500 ppm of active ingredient

Structure (SMILES)	logP [1]	other results
CC(Cc1nc2ccc(C(F)(F)F)cn2c1-c1cccnc1)N(C(=O)c1c(C(F)F)nn(C)c1F)C1CC1 (stereo not drawn) [CMP1, N-cyclopropyl-3-(difluoromethyl)-5-fluoro-1-methyl-N-{1-[3-(pyridin-3-yl)-6-(trifluoromethyl)imidazo[1,2-a]pyridin-2-yl]propan-2-yl}-1H-pyrazole-4-carboxamide, reference compound]	–	Efficacy (Alternaria brassicae; Table A2, dose 100 ppm): 0%; Efficacy (Alternaria brassicae; Table A2, dose 500 ppm): 43%; protection (Alternaria brassicae): less than 50%; Efficacy (Puccinia recondita; Table B2, dose 500 ppm): 0%; protection (Puccinia recondita; [2]): no protection
CC(Cc1ncc(C(F)(F)F)cc1-c1cccnc1)N(C(=O)c1c(C(F)F)nn(C)c1F)C1CC1 (stereo not drawn) [CMP2, N-cyclopropyl-3-(difluoromethyl)-5-fluoro-1-methyl-N-{1-[5-(trifluoromethyl)-3,3′-bipyridin-2-yl]propan-2-yl}-1H-pyrazole-4-carboxamide, reference compound]	–	Efficacy (Uromyces appendiculatus): 0%; protection (Uromyces appendiculatus): no protection; Efficacy (Puccinia recondita; Table B3, dose 100 ppm): 38%; Efficacy (Puccinia recondita; Table B3, dose 500 ppm): 69%; protection (Puccinia recondita; [3]): less than 70%
CC(Cc1ncc(C(F)(F)F)cc1-c1cnc2ccccc2c1)N(C(=O)c1c(C(F)F)nn(C)c1F)C1CC1 (stereo not drawn) [I.01]	3.53	–
CC(Cc1ncc(C(F)(F)F)cc1-c1csc2ccccc12)N(C(=O)c1c(C(F)F)nn(C)c1F)C1CC1 (stereo not drawn) [I.02]	4.72	–
CC(Cc1ncc(C(F)(F)F)cc1-c1ccnc2cc(Cl)ccc12)N(C(=O)c1c(C(F)F)nn(C)c1F)C1CC1 (stereo not drawn) [I.03]	4.20	–
CC(Cc1ncc(C(F)(F)F)cc1-c1coc2ccccc12)N(C(=O)c1c(C(F)F)nn(C)c1F)C1CC1 (stereo not drawn) [I.04]	4.46	–
CC(Cc1ncc(C(F)(F)F)cc1-c1ccoc1)N(C(=O)c1c(C(F)F)nn(C)c1F)C1CC1 (stereo not drawn) [I.05]	3.76	Efficacy (Uromyces appendiculatus): 100%; protection (Uromyces appendiculatus): total protection; Efficacy (Puccinia recondita; Table B3, dose 100 ppm): 93%; Efficacy (Puccinia recondita; Table B3, dose 500 ppm): 100%; protection (Puccinia recondita; [3]): at least 90%
CC(Cc1ncc(C(F)(F)F)cc1-c1ccsc1)N(C(=O)c1c(C(F)F)nn(C)c1F)C1CC1 (stereo not drawn) [I.06, N-cyclopropyl-3-(difluoromethyl)-5-fluoro-1-methyl-N-{1-[3-(3-thienyl)-5-(trifluoro-methyl)-pyridin-2-yl]propan-2-yl}-1H-pyrazole-4-carboxamide]	–	chromatographic logP ([1]; reversed-phase HPLC column (C 18), preparation example 1): 4.03
Cc1cscc1-c1cc(C(F)(F)F)cnc1CC(C)N(C(=O)c1c(C(F)F)nn(C)c1F)C1CC1 (stereo not drawn) [I.07]	4.37	–
CC(Cc1ncc(C(F)(F)F)cc1-c1ccco1)N(C(=O)c1cn(C)nc1C(F)F)C1CC1 (stereo not drawn) [I.08]	3.55	–
CC(Cc1ncc(C(F)(F)F)cc1-c1ccsc1)N(C(=O)c1cn(C)nc1C(F)F)C1CC1 (stereo not drawn) [I.09]	3.67	–
Cc1cscc1-c1cc(C(F)(F)F)cnc1CC(C)N(C(=O)c1cn(C)nc1C(F)F)C1CC1 (stereo not drawn) [I.10]	3.99	–
CC(Cc1ncc(C(F)(F)F)cc1-c1coc2ccccc12)N(C(=O)c1cn(C)nc1C(F)F)C1CC1 (stereo not drawn) [I.11]	4.11	–
CC(Cc1ncc(C(F)(F)F)cc1-c1ccnc2cc(Cl)ccc12)N(C(=O)c1cn(C)nc1C(F)F)C1CC1 (stereo not drawn) [I.12]	3.78	–
CC(Cc1ncc(C(F)(F)F)cc1-c1cnc2ccccc2c1)N(C(=S)c1c(C(F)F)nn(C)c1F)C1CC1 (stereo not drawn) [I.13]	3.99	–
CC(Cc1ncc(C(F)(F)F)cc1-c1csc2ccccc12)N(C(=S)c1c(C(F)F)nn(C)c1F)C1CC1 (stereo not drawn) [I.14]	5.32	–
CC(Cc1nc2ccc(C(F)(F)F)cn2c1-c1ccsc1)N(C(=O)c1c(C(F)F)nn(C)c1F)C1CC1 (stereo not drawn) [I.15]	2.8	–

Second part, led by results:

logP [1]	Structure (SMILES)	other results
2.63	CC(Cc1nc2ccc(C(F)(F)F)cn2c1-c1ccoc1)N(C(=O)c1c(C(F)F)nn(C)c1F)C1CC1 (stereo not drawn) [I.16]	Efficacy (Alternaria brassicae; Table A2, dose 100 ppm): 86%; Efficacy (Alternaria brassicae; Table A2, dose 500 ppm): 86%; protection (Alternaria brassicae): at least 80%; Efficacy (Puccinia recondita; Table B2, dose 500 ppm): 78%; protection (Puccinia recondita; [2]): at least 70%
3.57	CC(Cc1nc2ccc(C(F)(F)F)cn2c1-c1csc2ccccc12)N(C(=O)c1c(C(F)F)nn(C)c1F)C1CC1 (stereo not drawn) [I.17]	–
2.44	CC(Cc1nc2ccc(C(F)(F)F)cn2c1-c1cccc2cccnc12)N(C(=O)c1c(C(F)F)nn(C)c1F)C1CC1 (stereo not drawn) [I.18]	–
2.44	COc1ccnc(-c2c(CC(C)N(C(=O)c3c(C(F)F)nn(C)c3F)C3CC3)nc3ccc(C(F)(F)F)cn23)n1 (stereo not drawn) [I.19]	–
3.08	CC(Cc1nc2ccc(C(F)(F)F)cn2c1-c1ccsc1)N(C(=O)c1nn(C)nc1C(F)F)C1CC1 (stereo not drawn) [I.20]	–
1.82	CC(Cc1ncc(C(F)(F)F)cc1CN1CCCCC1)N(C(=O)c1c(C(F)F)nn(C)c1F)C1CC1 (stereo not drawn) [I.21]	–
1.67	CC(Cc1ncc(C(F)(F)F)cc1CN1CCCCC1)N(C(=O)c1cn(C)nc1C(F)F)C1CC1 (stereo not drawn) [I.22]	–
4.44	CC(Cc1nc2ccc(C(F)(F)F)cn2c1-c1ccsc1)N(C(=O)c1ccsc1Cl)C1CC1 (stereo not drawn) [I.23]	–
3.35	Cc1cc(C(=O)N(C(C)Cc2nc3ccc(C(F)(F)F)cn3c2-c2ccsc2)C2CC2)c(C)o1 (stereo not drawn) [I.24]	–
3.39	Cc1nc(C(F)F)c(C(=O)N(C(C)Cc2nc3ccc(C(F)(F)F)cn3c2-c2ccsc2)C2CC2)s1 (stereo not drawn) [I.25]	–
